Laboratory results: PubChem BioAssay AID2060603 (Molecular Pharmacology Branch, DTP, NCI, 2025)
Where “and” joins values, the source holds several entries; their conditions need not be identical. Equal entries are not always repeated. Each block holds one compound with its values, some of them ahead of it.

Test system: 422866-222-R5-J1-PDC spheroid viability
Assay: Anticancer human tumor 422866-222-R5-J1-PDC patient-derived pancreatic adenocarcinoma cell line growth inhibition [CLK]
Details: spheroids with HUVEC and MSC; for viability, T/C: stronger effect = lower value
Method in brief: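 Patient-derived tumor cells grown as complex spheroids with HUVEC endothelial cells and mesenchymal stem cells, treated with drug combinations. Concentrations descend in half-log steps from near clinical Cmax, or from 10 microM if Cmax unknown.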

[1] = curve of first compound, second compound 0.0316 µM
[2] = curve of first compound, second compound 0.1 µM
[3] = curve of first compound, second compound 0.316 µM
[4] = curve of first compound, second compound 1 µM
[5] = curve of first compound, second compound 3.16 µM
[6] = curve of first compound, second compound 10 µM
[7] = second compound 0.0316 µM, first compound 0.0316 µM
[8] = second compound 0.0316 µM, first compound 0.1 µM
[9] = second compound 0.0316 µM, first compound 0.316 µM
[10] = second compound 0.0316 µM, first compound 1 µM
[11] = second compound 0.0316 µM, first compound 3.16 µM
[12] = second compound 0.0316 µM, first compound 10 µM
[13] = second compound 0.1 µM, first compound 0.0316 µM
[14] = second compound 0.1 µM, first compound 0.1 µM
[15] = second compound 0.1 µM, first compound 0.316 µM
[16] = second compound 0.1 µM, first compound 1 µM
[17] = second compound 0.1 µM, first compound 3.16 µM
[18] = second compound 0.1 µM, first compound 10 µM
[19] = second compound 0.316 µM, first compound 0.0316 µM
[20] = second compound 0.316 µM, first compound 0.1 µM
[21] = second compound 0.316 µM, first compound 0.316 µM
[22] = second compound 0.316 µM, first compound 1 µM
[23] = second compound 0.316 µM, first compound 3.16 µM
[24] = second compound 0.316 µM, first compound 10 µM
[25] = second compound 1 µM, first compound 0.0316 µM
[26] = second compound 1 µM, first compound 0.1 µM
[27] = second compound 1 µM, first compound 0.316 µM
[28] = second compound 1 µM, first compound 1 µM
[29] = second compound 1 µM, first compound 3.16 µM
[30] = second compound 1 µM, first compound 10 µM
[31] = second compound 3.16 µM, first compound 0.0316 µM
[32] = second compound 3.16 µM, first compound 0.1 µM
[33] = second compound 3.16 µM, first compound 0.316 µM
[34] = second compound 3.16 µM, first compound 1 µM
[35] = second compound 3.16 µM, first compound 3.16 µM
[36] = second compound 3.16 µM, first compound 10 µM
[37] = second compound 10 µM, first compound 0.0316 µM
[38] = second compound 10 µM, first compound 0.1 µM
[39] = second compound 10 µM, first compound 0.316 µM
[40] = second compound 10 µM, first compound 1 µM
[41] = second compound 10 µM, first compound 3.16 µM
[42] = second compound 10 µM, first compound 10 µM
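Also: spheroids exposed to agents for seven days before readout.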

IC50 [1]: > 3000 nM
IC50 [2]: > 3000 nM
IC50 [3]: 279 nM
IC50 [4]: 55.4 nM
IC50 [5]: 37 nM
IC50 [6]: 55.2 nM
SMILES: NC(=O)C(=Cn1cnc(-c2cc(C(F)(F)F)cc(C(F)(F)F)c2)n1)c1cncnc1 + CNC(=O)c1ccc(Nc2nc(OC3CCCC3)c3c(-c4ccc5nc(C)oc5c4)c[nH]c3n2)c(OC)c1
viability, T/C (second compound 0.0316 µM, first compound 0.00949 µM): 98.7%
viability, T/C (second compound 0.0316 µM, first compound 0.03 µM): 107%
viability, T/C (second compound 0.0316 µM, first compound 0.0949 µM): 95.1%
viability, T/C (second compound 0.0316 µM, first compound 0.3 µM): 47.6%
viability, T/C (second compound 0.0316 µM, first compound 0.949 µM): 75.6%
viability, T/C (second compound 0.0316 µM, first compound 3 µM): 76.5%
viability, T/C (second compound 0.1 µM, first compound 0.00949 µM): 98.5%
viability, T/C (second compound 0.1 µM, first compound 0.03 µM): 115%
viability, T/C (second compound 0.1 µM, first compound 0.0949 µM): 66.6%
viability, T/C (second compound 0.1 µM, first compound 0.3 µM): 46.2%
viability, T/C (second compound 0.1 µM, first compound 0.949 µM): 47.5%
viability, T/C (second compound 0.1 µM, first compound 3 µM): 67.5%
viability, T/C (second compound 0.316 µM, first compound 0.00949 µM): 86.1%
viability, T/C (second compound 0.316 µM, first compound 0.03 µM): 87.6%
viability, T/C (second compound 0.316 µM, first compound 0.0949 µM): 56.8%
viability, T/C (second compound 0.316 µM, first compound 0.3 µM): 31.4%
viability, T/C (second compound 0.316 µM, first compound 0.949 µM): 45.4%
viability, T/C (second compound 0.316 µM, first compound 3 µM): 71.8%
viability, T/C (second compound 1 µM, first compound 0.00949 µM): 52%
viability, T/C (second compound 1 µM, first compound 0.03 µM): 69.5%
viability, T/C (second compound 1 µM, first compound 0.0949 µM): 40.6%
viability, T/C (second compound 1 µM, first compound 0.3 µM): 21.7%
viability, T/C (second compound 1 µM, first compound 0.949 µM): 32.3%
viability, T/C (second compound 1 µM, first compound 3 µM): 54.9%
viability, T/C (second compound 3.16 µM, first compound 0.00949 µM): 45.7%
viability, T/C (second compound 3.16 µM, first compound 0.03 µM): 60.2%
viability, T/C (second compound 3.16 µM, first compound 0.0949 µM): 37.3%
viability, T/C (second compound 3.16 µM, first compound 0.3 µM): 21.3%
viability, T/C (second compound 3.16 µM, first compound 0.949 µM): 29.5%
viability, T/C (second compound 3.16 µM, first compound 3 µM): 48.2%
viability, T/C (second compound 10 µM, first compound 0.00949 µM): 55.1%
viability, T/C (second compound 10 µM, first compound 0.03 µM): 65.4%
viability, T/C (second compound 10 µM, first compound 0.0949 µM): 40.9%
viability, T/C (second compound 10 µM, first compound 0.3 µM): 27.9%
viability, T/C (second compound 10 µM, first compound 0.949 µM): 37.2%
viability, T/C (second compound 10 µM, first compound 3 µM): 49.3%

SMILES: O=c1[nH]cc(F)c(=O)[nH]1 + CN1CCN(c2cc(C(=O)Nc3cc4cc(-c5cnn(C)c5)ccc4cn3)ccn2)CC1
IC50 [1]: > 10000 nM
IC50 [2]: > 10000 nM
IC50 [3]: > 10000 nM
IC50 [4]: < 31.6 nM
IC50 [5]: < 31.6 nM
IC50 [6]: < 31.6 nM
viability, T/C [7]: 116%
viability, T/C [8]: 129%
viability, T/C [9]: 114%
viability, T/C [10]: 95.6%
viability, T/C [11]: 86.9%
viability, T/C [12]: 77.1%
viability, T/C [13]: 125%
viability, T/C [14]: 104%
viability, T/C [15]: 108%
viability, T/C [16]: 90.5%
viability, T/C [17]: 84.7%
viability, T/C [18]: 91%
viability, T/C [19]: 90.4%
viability, T/C [20]: 100%
viability, T/C [21]: 91.9%
viability, T/C [22]: 96.1%
viability, T/C [23]: 80.7%
viability, T/C [24]: 80.6%
viability, T/C [25]: 24.2%
viability, T/C [26]: 19.1%
viability, T/C [27]: 25.6%
viability, T/C [28]: 17.9%
viability, T/C [29]: 23.7%
viability, T/C [30]: 22.5%
viability, T/C [31]: 8.44%
viability, T/C [32]: 10.5%
viability, T/C [33]: 9.21%
viability, T/C [34]: 8.88%
viability, T/C [35]: 10.5%
viability, T/C [36]: 9.67%
viability, T/C [37]: 1.68%
viability, T/C [38]: 1.08%
viability, T/C [39]: 0.97%
viability, T/C [40]: 1.08%
viability, T/C [41]: 3.1%
viability, T/C [42]: 1.13%

IC50 (curve of compound): < 3.16 nM
SMILES: CCc1c2c(nc3ccc(O)cc13)-c1cc3c(c(=O)n1C2)COC(=O)[C@]3(O)CC
viability, T/C (compound 0.00316 µM): 45.8% and 52.3%
viability, T/C (compound 0.01 µM): 37% and 43.1%
viability, T/C (compound 0.0316 µM): 44% and 44.3%
viability, T/C (compound 0.1 µM): 47.2% and 45.5%
viability, T/C (compound 0.316 µM): 41.7% and 43.5%
viability, T/C (compound 1 µM): 19.9% and 18.4%

IC50 [1]: 939 nM
IC50 [2]: 125 nM
IC50 [3]: 86 nM
IC50 [4]: 119 nM
IC50 [5]: 158 nM
IC50 [6]: 72.4 nM
SMILES: Nc1ccn(C2OC(CO)C(O)C2(F)F)c(=O)n1 (stereo not drawn) + CNC(=O)c1ccc(Nc2nc(OC3CCCC3)c3c(-c4ccc5nc(C)oc5c4)c[nH]c3n2)c(OC)c1
viability, T/C [7]: 61.4%
viability, T/C [8]: 57.8%
viability, T/C [9]: 53.7%
viability, T/C [10]: 50%
viability, T/C [11]: 45.3%
viability, T/C [12]: 39.6%
viability, T/C [13]: 90.4%
viability, T/C [14]: 50.8%
viability, T/C [15]: 44.9%
viability, T/C [16]: 46.1%
viability, T/C [17]: 36.3%
viability, T/C [18]: 42.1%
viability, T/C [19]: 73.8%
viability, T/C [20]: 46.7%
viability, T/C [21]: 37.8%
viability, T/C [22]: 40.6%
viability, T/C [23]: 36%
viability, T/C [24]: 37.5%
viability, T/C [25]: 69.8%
viability, T/C [26]: 51.4%
viability, T/C [27]: 42.8%
viability, T/C [28]: 32.2%
viability, T/C [29]: 39.2%
viability, T/C [30]: 43.8%
viability, T/C [31]: 55.2%
viability, T/C [32]: 60.7%
viability, T/C [33]: 42.1%
viability, T/C [34]: 40.4%
viability, T/C [35]: 33.7%
viability, T/C [36]: 34.1%
viability, T/C [37]: 67.8%
viability, T/C [38]: 42.9%
viability, T/C [39]: 40.3%
viability, T/C [40]: 33.7%
viability, T/C [41]: 39.2%
viability, T/C [42]: 40.6%
